Assay results as given in patent US12083109B2, “Neurokinin antagonists and uses thereof” (California Institute of Technology, priority 2017, dated 2024).

Target: T1, Nk3R (Mus musculus, UniProt P47937)
T1 sequence (P47937 1-452): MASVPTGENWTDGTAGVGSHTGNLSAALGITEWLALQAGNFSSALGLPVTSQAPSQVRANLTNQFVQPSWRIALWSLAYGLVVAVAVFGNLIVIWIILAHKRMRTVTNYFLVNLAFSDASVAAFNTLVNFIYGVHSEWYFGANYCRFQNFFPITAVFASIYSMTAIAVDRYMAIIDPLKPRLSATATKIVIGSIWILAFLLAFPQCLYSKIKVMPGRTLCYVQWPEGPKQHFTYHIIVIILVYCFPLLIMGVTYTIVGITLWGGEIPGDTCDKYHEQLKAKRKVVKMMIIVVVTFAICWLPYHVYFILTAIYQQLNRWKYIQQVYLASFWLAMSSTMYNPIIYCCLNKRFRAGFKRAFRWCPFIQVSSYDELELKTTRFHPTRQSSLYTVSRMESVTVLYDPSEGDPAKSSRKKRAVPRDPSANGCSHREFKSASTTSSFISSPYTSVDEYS
Assay: Resident intruder assay (aggression), osanetant
Format: in vivo
Design: from tissue; host or cells: Living mice (wild-type C57Bl6/N males, Charles River)
Procedure: Testing for aggression using the resident intruder assay (Blanchard et al., 2003; incorporated by reference in its entirety) was performed as previously described (Hong et al., 2015; Hong et al., 2014; Lee et al., 2014; incorporated by reference in their entirety). Briefly, experimental mice (“residents”) were transported in their homecage to a novel behavior testing room (cagemates in group housed mice were removed from the homecage prior to transport for this and all other behavioral tests), where they acclimated for 5-15 minutes. Homecages were then slotted into a customized behavioral chamber lit with a surround panel of infrared lights and equipped with two synchronized infrared video cameras (Pointgrey) placed at 90-degree angles from each other to allow for simultaneous behavior recording with a front and top view. Synchronized video was acquired using Hunter 4.0 software (custom, Pietro Perona lab, Caltech). Following a two-minute baseline period, an unfamiliar male BALB/c mouse (“intruder”) was placed in the homecage of the resident for 10 minutes and mice were allowed to freely interact. Group housed BALB/c males were used as intruders because they are a relatively submissive strain, thereby reducing any intruder-initiated fighting. Behavior videos were hand-annotated by an observer blind to experimental conditions (Behavior Annotator, Piotr's MATLAB toolbox; http://vision.ucsd.edu/˜pdollar/toolbox/doc/). Fighting bouts were scored on a frame-by-frame basis and were defined as a frame during which the resident male was engaged in an episode of biting or intense aggressive behavior immediately surrounding a biting episode. Annotation files were then batch analyzed for behavior, including number of fighting bouts, using in-house customized programs in MATLAB (A. Kennedy, Caltech).
Mice were administered the Nk3R antagonist osanetant (Axon Medchem, Axon 1533) either systemically or intra-brain region. Osanctant was dissolved in saline with 0.1% Tween 20 (vehicle). For systemic administration mice received an intraperitoneal (i.p.) injection (5 mg/kg) 20 minutes prior to behavioral testing. For microinfusions, guide cannulas were removed from mice and replaced with injector cannulas (Plastics One), which protruded 0.5 mm from the tip of the guide cannula. Injectors were attached to 5 μl Hamilton syringes with PE tubing (Plastics One) and mounted on a microinfusion pump (Harvard Apparatus) for controlled infusion of osanetant (0.3 μl vehicle with 375 ng dose per site injected over 6 minutes). For experiments using systemic administration of clozapine-N-oxide (CNO), CNO (Enzo Life Sciences-Biomol, BML-NS105-0005) was dissolved in saline (9 g/L NaCl) and injected (i.p.) at 5 mg/kg for hM4DREADD silencing or 2 mg/kg for hM3DREADD activation 20 minutes prior to behavioral testing. CNO was also administered chronically in drinking water (0.5 mg CNO/100 ml water).

CC(=O)N(C)C1(c2ccccc2)CCN(CCC[C@]2(c3ccc(Cl)c(Cl)c3)CCCN(C(=O)c3ccccc3)C2)CC1 [osanetant, N-(1-{3-[(3R)-1-benzoyl-3-(3,4-dichlorophenyl)piperidin-3-yl]propyl}-4-phenylpiperidin-4-yl)-N-methylacetamide]
aggression promoted by sexual experience (2 weeks co-habitation with a female, no isolation, systemic osanetant): had no effect | SIS-enhanced aggression (SIS mice (2 weeks isolation), osanetant 5 mg/kg i.p. 20 min before test): blocked | SIS-enhanced aggression (SIS mice (2 weeks isolation), osanetant 5 mg/kg i.p. 20 min before test, listed as Osanetant): strongly reduced | SIS-enhanced aggression (osanetant daily during two-week isolation, tested off-drug): prevented | aggression (osanetant injection into CeA): unaffected | SIS-induced aggression (osanetant microinfusion into DMH): abolished | SIS-induced aggression (osanetant microinfusion into DMH, listed as Osanetant): selectively blocked | SIS-induced aggression (osanetant microinfusion into dBNSTa): no effect
